Read-outs that look alike come from different tables or passages of the source.
Tests used:
Format in all cases: cell-based
[1] = molecular target: EGFR(D770_N771insSVD) expressing Ba/F3 stable cell line (Homo sapiens, UniProt P00533, DUP768-770, cells depend on it); assay: Cellular proliferation (Alamar Blue) assay, EGFR D770_N771insSVD Ba/F3; conditions: 72 hr, read-out: D770 IC50
Method in brief: (§1)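 Ba/F3 stable lines (15,000 cells/well, RPMI + 10% FBS) seeded 16–18 h, then treated 72 h at 37 °C with compound, final 10–0.0005 μM in 3-fold dilutions. Viability read by Alamar Blue after 3 h incubation.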

[2] = molecular target: EGFR (A767_dupASV) expressing Ba/F3 stable cell line (Homo sapiens, UniProt P00533, DUP767-769, cells depend on it); assay: Cellular proliferation (Alamar Blue) assay, EGFR A767_dupASV Ba/F3; conditions: 72 hr, read-out: A767 IC50
Chain of EGFR (A767_dupASV) expressing Ba/F3 stable cell line (P00533 with tags, fused parts or gaps DUP767-769): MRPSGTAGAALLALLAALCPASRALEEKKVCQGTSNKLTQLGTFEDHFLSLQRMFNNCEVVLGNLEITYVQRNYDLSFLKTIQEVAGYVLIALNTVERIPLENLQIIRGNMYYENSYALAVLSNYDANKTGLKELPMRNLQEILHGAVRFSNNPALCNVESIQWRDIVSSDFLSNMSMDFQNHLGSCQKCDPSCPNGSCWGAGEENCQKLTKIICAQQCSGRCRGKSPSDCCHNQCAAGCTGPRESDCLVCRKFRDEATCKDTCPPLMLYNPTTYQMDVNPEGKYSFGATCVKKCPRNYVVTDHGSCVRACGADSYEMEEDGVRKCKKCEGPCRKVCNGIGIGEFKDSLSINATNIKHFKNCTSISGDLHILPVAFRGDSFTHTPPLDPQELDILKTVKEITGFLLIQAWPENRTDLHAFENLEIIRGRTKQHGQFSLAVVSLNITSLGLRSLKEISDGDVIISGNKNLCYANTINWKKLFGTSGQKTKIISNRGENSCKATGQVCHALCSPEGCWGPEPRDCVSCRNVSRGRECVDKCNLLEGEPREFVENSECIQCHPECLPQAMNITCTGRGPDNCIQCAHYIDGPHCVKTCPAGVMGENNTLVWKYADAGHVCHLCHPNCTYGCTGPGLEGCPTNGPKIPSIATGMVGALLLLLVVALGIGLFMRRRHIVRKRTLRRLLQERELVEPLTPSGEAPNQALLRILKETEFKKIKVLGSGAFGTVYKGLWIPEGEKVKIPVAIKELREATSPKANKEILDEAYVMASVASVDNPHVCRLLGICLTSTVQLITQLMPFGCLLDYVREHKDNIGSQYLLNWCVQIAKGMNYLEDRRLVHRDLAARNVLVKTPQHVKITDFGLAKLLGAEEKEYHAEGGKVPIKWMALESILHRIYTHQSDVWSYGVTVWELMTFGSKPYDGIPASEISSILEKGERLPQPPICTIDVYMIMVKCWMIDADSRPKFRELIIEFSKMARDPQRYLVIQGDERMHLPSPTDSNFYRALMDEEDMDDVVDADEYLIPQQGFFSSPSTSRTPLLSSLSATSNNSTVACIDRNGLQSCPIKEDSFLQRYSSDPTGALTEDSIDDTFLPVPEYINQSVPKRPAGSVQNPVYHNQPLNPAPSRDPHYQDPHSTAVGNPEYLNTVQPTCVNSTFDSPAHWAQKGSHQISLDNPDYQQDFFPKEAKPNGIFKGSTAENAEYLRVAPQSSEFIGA
Method in brief: as §1

[3] = molecular target: HER2 (A775_G776insYVMA) expressing Ba/F3 stable cell line (Homo sapiens, UniProt P04626, DUP772-775, cells depend on it); assay: Cellular proliferation (Alamar Blue) assay, HER2 A775_G776insYVMA Ba/F3; conditions: 72 hr, read-out: YVMA IC50
Chain of HER2 (A775_G776insYVMA) expressing Ba/F3 stable cell line (P04626 with tags, fused parts or gaps DUP772-775): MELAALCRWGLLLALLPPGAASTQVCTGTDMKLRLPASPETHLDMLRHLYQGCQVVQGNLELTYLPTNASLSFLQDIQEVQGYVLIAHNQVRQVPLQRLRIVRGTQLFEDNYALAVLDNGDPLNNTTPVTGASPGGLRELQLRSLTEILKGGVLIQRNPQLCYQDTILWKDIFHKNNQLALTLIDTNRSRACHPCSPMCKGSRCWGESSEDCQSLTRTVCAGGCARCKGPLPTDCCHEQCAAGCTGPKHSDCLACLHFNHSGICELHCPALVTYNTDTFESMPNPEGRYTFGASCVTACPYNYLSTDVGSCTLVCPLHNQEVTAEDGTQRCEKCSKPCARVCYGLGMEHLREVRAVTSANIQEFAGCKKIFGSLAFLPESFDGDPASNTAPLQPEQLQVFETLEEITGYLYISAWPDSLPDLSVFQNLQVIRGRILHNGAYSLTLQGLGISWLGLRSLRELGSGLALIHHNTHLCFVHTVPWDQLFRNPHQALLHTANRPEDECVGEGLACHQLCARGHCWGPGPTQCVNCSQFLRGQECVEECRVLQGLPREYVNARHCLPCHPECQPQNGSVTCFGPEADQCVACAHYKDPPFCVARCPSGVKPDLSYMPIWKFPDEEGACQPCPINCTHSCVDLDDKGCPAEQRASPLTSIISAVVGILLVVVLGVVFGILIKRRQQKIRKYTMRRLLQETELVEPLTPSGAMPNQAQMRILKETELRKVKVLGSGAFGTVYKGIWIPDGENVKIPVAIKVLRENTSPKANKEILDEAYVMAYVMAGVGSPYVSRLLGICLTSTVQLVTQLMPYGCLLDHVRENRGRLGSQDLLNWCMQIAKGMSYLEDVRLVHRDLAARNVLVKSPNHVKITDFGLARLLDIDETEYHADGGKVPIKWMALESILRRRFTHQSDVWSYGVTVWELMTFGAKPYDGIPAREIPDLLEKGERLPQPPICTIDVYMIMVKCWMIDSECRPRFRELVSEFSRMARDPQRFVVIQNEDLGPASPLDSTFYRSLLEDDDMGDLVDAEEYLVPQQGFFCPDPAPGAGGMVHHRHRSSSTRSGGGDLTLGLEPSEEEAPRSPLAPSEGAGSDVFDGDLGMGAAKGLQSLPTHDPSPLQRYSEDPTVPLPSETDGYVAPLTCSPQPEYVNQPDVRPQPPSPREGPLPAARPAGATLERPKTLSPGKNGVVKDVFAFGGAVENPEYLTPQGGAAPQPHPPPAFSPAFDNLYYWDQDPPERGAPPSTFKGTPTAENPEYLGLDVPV
Method in brief: as §1

[4] = molecular target: EGFR (H773insNPH) expressing Ba/F3 stable cell line (Homo sapiens, UniProt P00533, DUP771-773, cells depend on it); assay: Cellular proliferation (Alamar Blue) assay, EGFR H773insNPH Ba/F3; conditions: 72 hr, read-out: NPH IC50
Chain of EGFR (H773insNPH) expressing Ba/F3 stable cell line (P00533 with tags, fused parts or gaps DUP771-773): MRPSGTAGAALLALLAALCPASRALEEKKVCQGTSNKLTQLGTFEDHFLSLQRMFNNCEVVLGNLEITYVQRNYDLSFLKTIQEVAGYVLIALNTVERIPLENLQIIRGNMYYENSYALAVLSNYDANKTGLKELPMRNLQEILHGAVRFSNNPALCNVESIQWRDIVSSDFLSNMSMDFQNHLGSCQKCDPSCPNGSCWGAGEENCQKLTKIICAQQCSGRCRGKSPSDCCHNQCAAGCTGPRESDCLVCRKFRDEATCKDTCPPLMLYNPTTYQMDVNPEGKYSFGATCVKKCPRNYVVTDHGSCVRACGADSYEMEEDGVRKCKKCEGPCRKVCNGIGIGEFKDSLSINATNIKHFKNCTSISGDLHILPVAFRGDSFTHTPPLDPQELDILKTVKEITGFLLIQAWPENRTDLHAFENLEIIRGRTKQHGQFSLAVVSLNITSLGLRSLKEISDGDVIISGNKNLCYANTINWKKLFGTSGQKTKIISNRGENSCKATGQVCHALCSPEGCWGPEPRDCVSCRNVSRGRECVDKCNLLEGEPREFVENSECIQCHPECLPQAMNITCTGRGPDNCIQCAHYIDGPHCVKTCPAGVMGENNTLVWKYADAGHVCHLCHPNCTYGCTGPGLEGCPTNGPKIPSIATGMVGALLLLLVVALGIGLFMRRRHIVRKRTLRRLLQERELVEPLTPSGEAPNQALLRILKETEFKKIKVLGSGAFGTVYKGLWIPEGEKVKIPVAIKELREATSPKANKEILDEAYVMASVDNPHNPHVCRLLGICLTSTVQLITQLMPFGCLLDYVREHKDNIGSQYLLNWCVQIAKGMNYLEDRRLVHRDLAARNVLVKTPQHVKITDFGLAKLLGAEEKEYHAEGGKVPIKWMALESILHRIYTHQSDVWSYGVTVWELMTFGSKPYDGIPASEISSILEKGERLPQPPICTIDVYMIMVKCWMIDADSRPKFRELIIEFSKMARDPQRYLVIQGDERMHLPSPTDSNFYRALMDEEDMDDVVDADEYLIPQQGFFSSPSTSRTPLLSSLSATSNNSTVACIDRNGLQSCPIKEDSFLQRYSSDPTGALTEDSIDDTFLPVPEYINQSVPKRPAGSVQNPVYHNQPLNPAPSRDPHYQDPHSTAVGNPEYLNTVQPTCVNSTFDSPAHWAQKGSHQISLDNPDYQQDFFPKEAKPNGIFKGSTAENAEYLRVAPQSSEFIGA
Method: • 1. EGFR(D770_N771insSVD) expressing Ba/F3 stable cell line • 2. EGFR (A767_dupASV) expressing Ba/F3 stable cell line • 3. A431 cells • 4. EGFR (H773insNPH) expressing Ba/F3 stable cell line • 5. HER2 (A775_G776insYVMA) expressing Ba/F3 stable cell line Assay Procedure: • 1. Seed cells at 5000 for A431 and 15,000 cells for Ba/F3 in 100 μL/well in complete media (for A431: DMEM with […] and for Ba/F3 cells: RPMI with 10% FBS) in 96-well tissue culture plate. Leave outer wells without cells for background measurements. Incubate at 37 degree Celsius in […] humidified incubator for 16-18 hours. • 2. Add 0.025 ml of 5× concentration compound dilution or DMSO control. Final compound concentration range is 10-0.0005 μM prepared in 3-fold serial dilutions. Incubate for 72 hr at 37 degree Celsius in […] humidified incubator. • 3. Add 0.0125 ml Alamar Blue™ reagent to each well with multi-channel pipette and tap gently on each side of the plate to mix. Incubate for 3 hours at 37 degree Celsius in 5% CO2 humidified incubator. • 4. […] Data analysis was performed using XLfit 5.5.0.5.

[5] = test system: A431 cells; assay: Cellular proliferation (Alamar Blue) assay, A431
[6] = Homo sapiens, A-431; A431 cells, Alamar Blue, 72 hr; read-out: A431 IC50

Chain of EGFR(D770_N771insSVD) expressing Ba/F3 stable cell line (P00533 with tags, fused parts or gaps DUP768-770): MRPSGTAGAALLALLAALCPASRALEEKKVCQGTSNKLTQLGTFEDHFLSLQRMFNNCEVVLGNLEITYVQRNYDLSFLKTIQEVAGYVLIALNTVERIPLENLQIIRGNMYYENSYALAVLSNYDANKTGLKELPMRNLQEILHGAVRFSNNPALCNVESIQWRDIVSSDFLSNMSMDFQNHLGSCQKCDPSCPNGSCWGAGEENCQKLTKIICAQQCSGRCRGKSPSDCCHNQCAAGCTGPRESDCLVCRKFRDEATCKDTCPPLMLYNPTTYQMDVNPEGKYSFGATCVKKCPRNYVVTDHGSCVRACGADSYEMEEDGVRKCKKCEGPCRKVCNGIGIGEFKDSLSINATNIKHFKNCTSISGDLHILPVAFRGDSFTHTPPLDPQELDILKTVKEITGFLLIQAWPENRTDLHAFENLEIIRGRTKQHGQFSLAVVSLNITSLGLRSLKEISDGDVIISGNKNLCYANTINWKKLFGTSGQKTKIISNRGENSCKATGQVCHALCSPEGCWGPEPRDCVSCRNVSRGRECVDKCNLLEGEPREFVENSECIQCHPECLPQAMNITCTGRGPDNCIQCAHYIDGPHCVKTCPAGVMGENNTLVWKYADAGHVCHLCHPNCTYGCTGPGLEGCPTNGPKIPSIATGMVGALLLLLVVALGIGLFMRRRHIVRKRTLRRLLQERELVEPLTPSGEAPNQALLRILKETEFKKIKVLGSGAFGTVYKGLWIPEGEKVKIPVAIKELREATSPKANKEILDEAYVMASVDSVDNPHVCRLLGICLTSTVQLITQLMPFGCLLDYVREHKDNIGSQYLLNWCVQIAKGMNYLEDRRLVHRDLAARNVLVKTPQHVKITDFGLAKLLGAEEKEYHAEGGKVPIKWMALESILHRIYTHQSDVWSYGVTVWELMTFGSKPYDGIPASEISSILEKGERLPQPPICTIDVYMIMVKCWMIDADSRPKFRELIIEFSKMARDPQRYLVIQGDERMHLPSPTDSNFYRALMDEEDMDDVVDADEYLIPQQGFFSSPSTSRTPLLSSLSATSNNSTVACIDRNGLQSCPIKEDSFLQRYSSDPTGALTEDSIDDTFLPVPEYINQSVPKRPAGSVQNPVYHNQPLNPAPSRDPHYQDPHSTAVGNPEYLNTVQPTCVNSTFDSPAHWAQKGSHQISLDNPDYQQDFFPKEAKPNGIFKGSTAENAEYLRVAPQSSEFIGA

| GI50 [1] [nM] | GI50 [2] [nM] | GI50 [3] [nM] | GI50 [4] [nM] | IC50 [5, 6] [nM] | IC50 ([5]; Homo sapiens, A-431; A431 cells, 72 hr, Alamar Blue; read-out: A431 IC50) [nM] | Structure (SMILES) | IC50 ([5]; A431 cells, 72 hr, Alamar Blue; read-out: A431 IC50) [nM] |
| --- | --- | --- | --- | --- | --- | --- | --- |
| 86 | 123 | 270 | 144 |  | 3000 | [2H]C([2H])=CC(=O)Nc1ccc(F)c(Nc2nc(Nc3cnn(C)c3)ncc2-c2ccc(C(F)(F)F)cc2)c1 [Compound 247, N-[4-fluoro-3-({2-[(1-methyl-1H-pyrazol-4-yl)amino]-5-[4-(trifluoromethyl)phenyl]pyrimidin-4-yl}amino)phenyl] (3,3-2H2) prop-2-enamide] |  |
| 108 | 118 | 269 | 300 | 216 |  | C=CC(=O)Nc1cccc(Oc2nc(Nc3cnn(C)c3)ncc2-c2ccc(OC(F)F)nc2)c1 [Compound 188, N-(3-((5-(6-(difluoromethoxy)pyridin-3-yl)-2-((1-methyl-1H-pyrazol-4-yl)amino)pyrimidin-4-yl)oxy)phenyl)acrylamide] |  |
| 32 | 34 | 269 | 58 | 22 |  | C=CC(=O)Nc1ccc(F)c(Nc2nc(Nc3cnn(C)c3)ncc2-c2ccc(OC(F)F)cc2)c1 [Compound 140, N-(3-((5-(4-(difluoromethoxy)phenyl)-2-((1-methyl-1H-pyrazol-4-yl)amino)pyrimidin-4-yl)amino)-4-fluorophenyl)acrylamide] |  |
| 101 | 100 | 201 | 49 | 141 |  | C=CC(=O)Nc1ccc(F)c(Nc2nc(Nc3cnn(C)c3)ncc2-c2cncc(OC)c2)c1 [Compound 141, N-(4-fluoro-3-((5-(5-methoxypyridin-3-yl)-2-((1-methyl-1H-pyrazol-4-yl)amino)pyrimidin-4-yl)amino)phenyl)acrylamide] |  |
| 100 | 53 | 344 | 112 | 613 |  | C=CC(=O)Nc1cccc(Oc2nc(Nc3cnn(C)c3)ncc2-c2ccc(F)nc2)c1 [Compound 109, N-(3-((5-(6-fluoropyridin-3-yl)-2-((1-methyl-1H-pyrazol-4-yl)amino)pyrimidin-4-yl)oxy)phenyl)acrylamide] |  |
| 171 | 239 | 413 | 234 | 97 |  | C=CC(=O)Nc1ccc(F)c(Nc2nc(Nc3cn(C)nc3F)ncc2-c2ccc(C(F)(F)F)cc2)c1 [Compound 87, N-(4-fluoro-3-((2-((3-fluoro-1-methyl-1H-pyrazol-4-yl)amino)-5-(4-(trifluoromethyl)phenyl)pyrimidin-4-yl)amino)phenyl)acrylamide] |  |
| 104 | 56 | 300 | 294 | 341 |  | C=CC(=O)Nc1cccc(Oc2nc(Nc3cnn(C)c3)ncc2-c2ccc(C(F)(F)F)nc2)c1 [Compound 108, N-(3-((2-((1-methyl-1H-pyrazol-4-yl)amino)-5-(6-(trifluoromethyl)pyridin-3-yl)pyrimidin-4-yl)oxy)phenyl)acrylamide] |  |
| 37 | 49 | 105 | 75 | 171 |  | C=CC(=O)Nc1cccc(Oc2nc(Nc3cnn(C)c3)ncc2-c2ccc(C(F)F)cc2)c1 [Compound 105, N-(3-((5-(4-(difluoromethyl)phenyl)-2-((1-methyl-1H-pyrazol-4-yl)amino)pyrimidin-4-yl)oxy)phenyl)acrylamide] |  |
| 86 | 57 | 160 | 107 | 85 |  | C=CC(=O)Nc1ccc(F)c(Nc2nc(Nc3cnn(C)c3)ncc2-c2ccnc(Cl)c2)c1 [Compound 117, N-(3-((5-(2-chloropyridin-4-yl)-2-((1-methyl-1H-pyrazol-4-yl)amino)pyrimidin-4-yl)amino)-4-fluorophenyl)acrylamide] |  |
| 173 | 300 | 651 | 407 | 3500 |  | C=CC(=O)Nc1ccc(F)c(Oc2nc(Nc3cnn(C)c3)ncc2-c2ccc(C(F)(F)F)cc2)c1 [Compound 152, N-(4-fluoro-3-((2-((1-methyl-1H-pyrazol-4-yl)amino)-5-(4-(trifluoromethyl)phenyl)pyrimidin-4-yl)oxy)phenyl)acrylamide] |  |
| 40 | 37 | 113 | 97 | 522 |  | C=CC(=O)Nc1cccc(Oc2nc(Nc3cnn(C)c3)ncc2-c2ccc(Cl)nc2)c1 [Compound 185, N-(3-((5-(6-chloropyridin-3-yl)-2-((1-methyl-1H-pyrazol-4-yl)amino)pyrimidin-4-yl)oxy)phenyl)acrylamide] |  |

The remaining lines, values behind:

| Structure (SMILES) | GI50 [1] [nM] | GI50 [2] [nM] | GI50 [3] [nM] | GI50 [4] [nM] | IC50 [5, 6] [nM] | IC50 ([5]; Homo sapiens, A-431; A431 cells, 72 hr, Alamar Blue; read-out: A431 IC50) [nM] | IC50 ([5]; A431 cells, 72 hr, Alamar Blue; read-out: A431 IC50) [nM] |
| --- | --- | --- | --- | --- | --- | --- | --- |
| C=CC(=O)Nc1ccc(F)c(Nc2nc(Nc3cnn(C)c3)ncc2-c2ccnc(C(F)(F)F)c2)c1 [Compound 83, N-(4-fluoro-3-((2-((1-methyl-1H-pyrazol-4-yl)amino)-5-(2-(trifluoromethyl)pyridin-4-yl)pyrimidin-4-yl)amino)phenyl)acrylamide] | 61 | 88 | 255 | 51 | 53 |  |  |
| C=CC(=O)Nc1cccc(Nc2nc(Nc3cnn(C)c3)ncc2-c2ccc(F)nc2)c1 [Compound 74, N-(3-((5-(6-fluoropyridin-3-yl)-2-((1-methyl-1H-pyrazol-4-yl)amino)pyrimidin-4-yl)amino)phenyl)acrylamide] | 36 | 38 | 70 | 43 | 236 |  |  |
| C=CC(=O)Nc1ccc(F)c(Nc2nc(Nc3cnn(C)c3)ncc2-c2ccnc(F)c2)c1 [Compound 82, N-(4-fluoro-3-((5-(2-fluoropyridin-4-yl)-2-((1-methyl-1H-pyrazol-4-yl)amino)pyrimidin-4-yl)amino)phenyl)acrylamide] | 38 | 103 | 226 | 57 | 590 |  |  |
| C=CC(=O)Nc1ccc(F)c(Nc2nc(Nc3cnn(C)c3)ncc2-c2ccnc(OC(F)F)c2)c1 [Compound 71, N-(3-((5-(2-(difluoromethoxy)pyridin-4-yl)-2-((1-methyl-1H-pyrazol-4-yl)amino)pyrimidin-4-yl)amino)-4-fluorophenyl)acrylamide] | 107 | 107 | 226 | 103 | 150 |  |  |
| C=CC(=O)Nc1ccc(F)c(Nc2nc(Nc3cnn(C4CCN(C)CC4)c3)ncc2-c2ccc(C(F)(F)F)cc2)c1 [Compound 85, N-(4-fluoro-3-((2-((1-(1-methylpiperidin-4-yl)-1H-pyrazol-4-yl)amino)-5-(4-(trifluoromethyl)phenyl)pyrimidin-4-yl)amino)phenyl)acrylamide] | 109 | 249 | 378 | 119 | 5440 |  |  |
| C=CC(=O)Nc1ccc(F)c(Nc2nc(Nc3cnn(C)c3)ncc2-c2ccc(Cl)cc2)c1 [Compound 61, N-(3-((5-(4-chlorophenyl)-2-((1-methyl-1H-pyrazol-4-yl)amino)pyrimidin-4-yl)amino)-4-fluorophenyl)acrylamide] | 56 | 99 | 219 | 91 | 261 |  |  |
| C=CC(=O)Nc1ccc(F)c(Nc2nc(Nc3cnn(C4CCN(C)CC4)c3)ncc2Cl)c1 [Compound 14, N-(3-((5-chloro-2-((1-(1-methylpiperidin-4-yl)-1H-pyrazol-4-yl)amino)pyrimidin-4-yl)amino)-4-fluorophenyl)acrylamide] | 320 | 170 | 756 | 192 | 1830 |  |  |
| C=CC(=O)Nc1ccc(F)c(Nc2nc(Nc3cnn(C)c3)ncc2-c2ccc(C(F)(F)F)cc2)c1 [Compound 243, N-(4-fluoro-3-((2-((1-(methyl-^13C-d3)-1H-pyrazol-4-yl)amino)-5-(4-(trifluoromethyl)phenyl)pyrimidin-4-yl)amino)phenyl)acrylamide] | 88 | 135 | 237 | 121 |  |  | 2600 |
| C=CC(=O)Nc1ccc(F)c(Nc2nc(Nc3cnn(C)c3)ncc2-c2ccnc(OC)c2)c1 [Compound 68, N-(4-fluoro-3-((5-(2-methoxypyridin-4-yl)-2-((1-methyl-1H-pyrazol-4-yl)amino)pyrimidin-4-yl)amino)phenyl)acrylamide] | 101 | 108 | 128 | 107 | 223 |  |  |

From patent US12686673B2 (Blueprint Medicines Corporation, priority 2020, dated 2026)
